In general, IC50 refers to the concentration at which inhibition is half-maximal. Low values mean higher potency, high ones lower potency. The CC50 is the concentration at which the toxic effect on the cells reaches its halfway point. Higher therefore signals lower toxicity to the cells.

Data set [1] relates to SARS-CoV-2. The experiment in a line: microbe, parasite or virus in culture. In kind it is functional, organism-based, Chlorocebus sabaeus. The note with it: Severe acute respiratory syndrome coronavirus 2, Vero, 24 h.
Data set [2] is described as follows: Selectivity index for antiviral vs cytotoxic activity in Vero cells (CC50/IC50). The note with it: monkey.
A short description of data set [3]: Cell viability measured by CellTiter-Glo assay in Vero cells at MOI 0.05 after 72hr. As to conditions: chlorocebus sabaeus, Vero cells. (In general: In ATP-based viability assays light output follows the ATP content of the culture.)

Each structure is given as a SMILES string. A value given as a limit tells only on which side of the number the result lay.

Regarding `CCN(CC)CCCC(C)Nc1c2ccc(Cl)cc2nc2ccc(OC)cc12` (stereo not drawn) [QUINACRINE], the IC50 in data set [1] is over 50 µM. The selectivity ratio in data set [2] (vero) is 0.29. In data set [3], this compound displayed a CC50 at 72 h of 14.7 µM.
In the case of `CC[C@@H](C(=O)[C@@H](C)[C@@H](O)[C@H](C)[C@@H]1O[C@@H]([C@@H](CC)C(=O)O)CC[C@@H]1C)[C@H]1O[C@]2(C=C[C@@H](O)[C@]3(CC[C@@](C)([C@H]4CC[C@](O)(CC)[C@H](C)O4)O3)O2)[C@H](C)C[C@@H]1C` [SALINOMYCIN], the IC50 in data set [1] was found to be 0.24 µM. For the same compound, in data set [2] (Vero cells), the selectivity ratio was found to be 211. In data set [3], this compound registered a CC50 at 72 h of over 50 µM.
The corresponding values for `CSc1ccc2c(c1)N(CCC1CCCCN1C)c1ccccc1S2` (stereo not drawn) [THIORIDAZINE] are 6.69 µM, 2.39 and 16 µM.
The corresponding values for `CCN(CC)CCOc1ccc2c(c1)C(=O)c1cc(OCCN(CC)CC)ccc1-2` [TILORONE] are 4.09 µM, 4.81 and 19.7 µM.
For `CN(C)CCOc1ccc(/C(=C(/CCCl)c2ccccc2)c2ccccc2)cc1` [TOREMIFENE], in that order: 3.58 µM, 2.82 and 10.1 µM.
As to `CCN(CC)CCOc1ccc(C(O)(Cc2ccc(Cl)cc2)c2ccc(C)cc2)cc1` (stereo not drawn) [TRIPARANOL], the IC50 in data set [1] was 7.05 µM. Moreover, in data set [2] (Vero cells), the selectivity ratio was 2.09. The compound also came in with a 50% cytotoxic concentration (CC50) at 72 h in data set [3] of 14.7 µM.

The values are drawn from ChEMBL document CHEMBL4303084, “Identification of antiviral drug candidates against SARS-CoV-2 from FDA-approved drugs” (2020).
